According to patent US20260250325A1, “Antiviral Polypeptide Membrane Fusion Inhibitor, and Preparation Method and Application Thereof” (priority 2025, published 2026):
Where a SMILES comes first, the peptide text is derived from it. The star is where a group is joined. Succinyl(4-O-cholesteryl) = CC(C)CCC[C@@H](C)[C@H]1CC[C@H]2[C@@H]3CC=C4C[C@@H](OC(=O)CCC(=O)*)CC[C@]4(C)[C@H]3CC[C@]12C; X1 = CC(C)CCCC(C)C1CCC2C3CC=C4CC(OC(=O)CCC(=O)*)CCC4(C)C3CCC12C

Tests used:
[1] = Cytotoxicity test in HEp-2 cells (CCK8 cell viability); type: cell-based; conditions: human; HEp-2 cells, CCK8, 1 day; read-out: CC50
Outline: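 Compound dilutions (final DMSO 0.5%) were applied for 1 day to HEp-2 cells plated at 30,000 per well the day before. CCK8 signal gave survival relative to cell and medium controls, and a four-parameter log(inhibitor)-response fit yielded CC50.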

hMPV-N46 (127-172) = target: T1, hMPV-N46 (127-172) (Human metapneumovirus, UniProt Q6WB98); test: SPR affinity to hMPV-N46 coupled on CM5 chip; type: binding
T1 construct: hMPV-N46 (127-172)
Protocol: hMPV and hPIV were two viruses having a typical Class I fusion protein-F protein. An F protein precursor F0 was cracked into F1 and F2 subunits. […] When the compound flowed through a chip surface, changes in an SPR signal were monitored in real time, binding and dissociation processes were recorded, and a binding rate constant (ka) and a dissociation rate constant (kd) were further obtained through kinetic analysis, thereby calculating an equilibrium dissociation constant (KD=kd/ka).
A CM5 chip with a catalog number 29149603, an amino coupling reagent kit with a catalog number BR100050, HBS-EP+Buffer (10×), sodium acetate (pH 4.0), and a 10 mM glycine-HCl buffer (pH 2.0) were all purchased from GE Health.
CM5 chip coupling: Channels 2 and 4 of the CM5 chip were activated for 7 min by using a freshly-prepared mixture of 50 mM Hydroxy succinimide (NHS) and 200 mM 1-(3-Dimethylaminopropyl)-3-ethylcarbodiimide (EDC) according to 1:1; and then, hMPV-N46 or hPIV-N51 was diluted and dissolved with sodium acetate with 4.0 pH to a concentration of 30 μM, with a flow rate of 10 μl/min and time of 600 s. An experimental buffer was HBS-EP+buffer (1×). Finally, the chip was blocked with 1 M ethanolamine. The instrument was set to a temperature of 25° C.
Affinity detection: the buffer used in the experiment was HBS-EP+buffer (1×), and a multi-cycle dynamic mode was used. Channels 1 and 3 of the chip served as blank reference channels; polypeptides to be detected sequentially flowed through Channels 2 and 4 at concentrations of 0 μM, 0.04 µM, 0.12 µM, 0.37 μM, 1.11 µM, 3.33 µM, 10 µM, and 30 μM; the flow rate was 30 μl/min, binding was performed for 180 s, and dissociation was performed for 120 s. Finally, the chip was regenerated by injecting 10 mM glycine (pH 2.0). The instrument was set to a temperature of 25° C.

T1 sequence (Q6WB98 127-172): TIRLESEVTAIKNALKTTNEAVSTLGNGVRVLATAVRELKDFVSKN

Compound	CC50 at 1 day [1]	Kd (hMPV-N46 (127-172))
CC[C@H](C)[C@H](NC(=O)[C@H](CCCCN)NC(=O)[C@H](CCCCN)NC(=O)[C@H](CC(C)C)NC(=O)[C@H](CO)NC(=O)[C@H](CCC(=O)O)NC(=O)[C@H](CCC(=O)O)NC(=O)[C@@H](NC(=O)[C@H](CCCCN)NC(=O)[C@H](CCCCN)NC(=O)[C@H](CC(N)=O)NC(=O)[C@@H](NC(=O)[C@H](CCC(=O)O)NC(=O)[C@H](CCC(=O)O)NC(=O)[C@@H](NC(=O)[C@H](CCCCN)NC(=O)[C@H](CCCCN)NC(=O)[C@H](CCCCN)NC(=O)[C@H](CC(=O)O)NC(=O)[C@H](Cc1ccccc1)NC(=O)[C@H](CCC(=O)O)NC(=O)[C@H](CC(=O)O)NC(C)=O)[C@@H](C)CC)C(C)C)[C@@H](C)CC)C(=O)N[C@@H](CCC(=O)O)C(=O)N[C@@H](CCC(=O)O)C(=O)N[C@@H](CO)C(=O)N[C@@H](CC(=O)O)C(=O)N[C@@H](CCCCN)C(=O)N[C@@H](CCCCN)C(=O)N[C@@H](CC(C)C)C(=O)N[C@@H](CCC(=O)O)C(=O)N[C@@H](CCC(=O)O)C(=O)N[C@H](C(=O)NCC(=O)N[C@@H](CO)C(=O)NCC(=O)N[C@@H](CO)C(=O)NCC(=O)N[C@@H](CCCCNC(=O)CCC(=O)O[C@H]1CC[C@@]2(C)C(=CC[C@H]3[C@@H]4CC[C@H]([C@H](C)CCCC(C)C)[C@@]4(C)CC[C@@H]32)C1)C(N)=O)C(C)C [Compound 15] (Ac-DEFDKKKIEEVNKKIEESLKKIEESDKKLEEVGSGSGK(Succinyl(4-O-cholesteryl))-NH2)	8.9 µM	0.0381 µM
CC[C@H](C)[C@H](NC(=O)[C@H](CCCCN)NC(=O)[C@H](CCCCN)NC(=O)[C@H](CC(C)C)NC(=O)[C@H](CO)NC(=O)[C@H](CCC(=O)O)NC(=O)[C@H](CCC(=O)O)NC(=O)[C@@H](NC(=O)[C@H](CCCCN)NC(=O)[C@H](CCCCN)NC(=O)[C@H](CC(N)=O)NC(=O)[C@@H](NC(=O)[C@H](CCC(=O)O)NC(=O)[C@H](CCC(=O)O)NC(=O)[C@@H](NC(=O)[C@H](CCCCN)NC(=O)[C@H](CCCCN)NC(=O)[C@H](CC(=O)O)NC(=O)[C@H](Cc1ccccc1)NC(=O)[C@H](CCC(=O)O)NC(=O)[C@H](CC(=O)O)NC(=O)[C@H](CO)NC(C)=O)[C@@H](C)CC)C(C)C)[C@@H](C)CC)C(=O)N[C@@H](CCC(=O)O)C(=O)N[C@@H](CCC(=O)O)C(=O)N[C@@H](CO)C(=O)N[C@@H](CC(=O)O)C(=O)N[C@@H](CCCCN)C(=O)N[C@@H](CCCCN)C(=O)N[C@@H](CC(C)C)C(=O)N[C@@H](CCC(=O)O)C(=O)N[C@@H](C)C(=O)N[C@@H](C)C(=O)N[C@@H](C)C(=O)N[C@@H](CCCCN)C(=O)N[C@@H](CCCCNC(=O)CCC(=O)O[C@H]1CC[C@@]2(C)C(=CC[C@H]3[C@@H]4CC[C@H]([C@H](C)CCCC(C)C)[C@@]4(C)CC[C@@H]32)C1)C(N)=O [Compound 16] (Ac-SDEFDKKIEEVNKKIEESLKKIEESDKKLEAAAKK(Succinyl(4-O-cholesteryl))-NH2)	17.1 µM	3.06 µM
CC[C@H](C)[C@H](NC(=O)[C@H](CCCCN)NC(=O)[C@H](CCCCN)NC(=O)[C@H](CC(C)C)NC(=O)[C@H](CO)NC(=O)[C@H](CCC(=O)O)NC(=O)[C@H](CCC(=O)O)NC(=O)[C@@H](NC(=O)[C@H](CCCCN)NC(=O)[C@H](CCCCN)NC(=O)[C@H](CC(N)=O)NC(=O)[C@@H](NC(=O)[C@H](CCC(=O)O)NC(=O)[C@H](CCC(=O)O)NC(=O)[C@@H](NC(=O)[C@H](CCCCN)NC(=O)[C@H](CCCCN)NC(=O)[C@H](CC(=O)O)NC(=O)[C@H](Cc1ccccc1)NC(=O)[C@H](CCC(=O)O)NC(=O)[C@H](CC(=O)O)NC(C)=O)[C@@H](C)CC)C(C)C)[C@@H](C)CC)C(=O)N[C@@H](CCC(=O)O)C(=O)N[C@@H](CCC(=O)O)C(=O)N[C@@H](CO)C(=O)N[C@@H](CC(=O)O)C(=O)N[C@@H](CCCCN)C(=O)N[C@@H](CCCCN)C(=O)N[C@@H](CC(C)C)C(=O)N[C@@H](CCC(=O)O)C(=O)N[C@@H](CCC(=O)O)C(=O)N[C@H](C(=O)N[C@@H](CCC(=O)O)C(=O)N[C@@H](C)C(=O)N[C@@H](C)C(=O)N[C@@H](C)C(=O)N[C@@H](CCCCN)C(=O)N[C@@H](CCCCNC(=O)CCC(=O)OC1CCC2(C)C(=CCC3C2CCC2(C)C(C(C)CCCC(C)C)CCC32)C1)C(N)=O)C(C)C (stereo partly drawn) [Compound 21] (Ac-DEFDKKIEEVNKKIEESLKKIEESDKKLEEVEAAAKK(X1)-NH2)	18.3 µM	–
CC[C@H](C)[C@H](NC(=O)[C@H](CCCCN)NC(=O)[C@H](CCC(=O)O)NC(=O)[C@H](CC(C)C)NC(=O)[C@H](CO)NC(=O)[C@H](CCC(N)=O)NC(=O)[C@H](CC(N)=O)NC(=O)[C@@H](NC(=O)[C@H](CCCCN)NC(=O)[C@H](CCC(=O)O)NC(=O)[C@H](CC(N)=O)NC(=O)[C@@H](NC(=O)[C@H](CCC(N)=O)NC(=O)[C@H](CO)NC(=O)[C@H](C)NC(=O)[C@H](CC(=O)O)NC(=O)[C@H](Cc1ccccc1)NC(=O)[C@@H](NC(=O)[C@H](CC(C)C)NC(=O)[C@H](CCC(=O)O)NC(=O)[C@H](CC(=O)O)NC(=O)[C@H](Cc1ccc(O)cc1)NC(C)=O)C(C)C)C(C)C)[C@@H](C)CC)C(=O)N[C@@H](CCCNC(=N)N)C(=O)N[C@@H](CCCCN)C(=O)N[C@@H](CO)C(=O)N[C@@H](CC(=O)O)C(=O)N[C@@H](CCC(=O)O)C(=O)N[C@@H](CC(C)C)C(=O)N[C@@H](CC(C)C)C(=O)N[C@@H](Cc1c[nH]cn1)C(=O)N[C@@H](CC(N)=O)C(=O)N[C@H](C(=O)NCC(=O)N[C@@H](CO)C(=O)NCC(=O)N[C@@H](CO)C(=O)NCC(=O)N[C@@H](CCCCNC(=O)CCC(=O)O[C@H]1CC[C@@]2(C)C(=CC[C@H]3[C@@H]4CC[C@H]([C@H](C)CCCC(C)C)[C@@]4(C)CC[C@@H]32)C1)C(N)=O)C(C)C [Compound 25] (Ac-YDELVFDASQVNEKINQSLEKIRKSDELLHNVGSGSGK(Succinyl(4-O-cholesteryl))-NH2)	7.5 µM	21.1 µM
CC[C@H](C)[C@H](NC(=O)[C@H](CCCCN)NC(=O)[C@H](CCC(=O)O)NC(=O)[C@H](CC(C)C)NC(=O)[C@H](CO)NC(=O)[C@H](CCC(N)=O)NC(=O)[C@H](CC(N)=O)NC(=O)[C@@H](NC(=O)[C@H](CCCCN)NC(=O)[C@H](CCC(=O)O)NC(=O)[C@H](CC(N)=O)NC(=O)[C@@H](NC(=O)[C@H](CCC(N)=O)NC(=O)[C@H](CO)NC(=O)[C@H](C)NC(=O)[C@H](CC(=O)O)NC(=O)[C@H](Cc1ccccc1)NC(=O)[C@@H](NC(=O)[C@H](CC(C)C)NC(=O)[C@H](CCC(=O)O)NC(=O)[C@H](CC(=O)O)NC(=O)[C@H](Cc1ccc(O)cc1)NC(C)=O)C(C)C)C(C)C)[C@@H](C)CC)C(=O)N[C@@H](CCCNC(=N)N)C(=O)N[C@@H](CCCCN)C(=O)N[C@@H](CO)C(=O)N[C@@H](CC(=O)O)C(=O)N[C@@H](CCC(=O)O)C(=O)N[C@@H](CC(C)C)C(=O)N[C@@H](CC(C)C)C(=O)N[C@@H](Cc1c[nH]cn1)C(=O)N[C@@H](CC(N)=O)C(=O)N[C@H](C(=O)N[C@@H](CCC(=O)O)C(=O)N[C@@H](C)C(=O)N[C@@H](C)C(=O)N[C@@H](C)C(=O)N[C@@H](CCCCN)C(=O)N[C@@H](CCCCNC(=O)CCC(=O)O[C@H]1CC[C@@]2(C)C(=CC[C@H]3[C@@H]4CC[C@H]([C@H](C)CCCC(C)C)[C@@]4(C)CC[C@@H]32)C1)C(N)=O)C(C)C [Compound 30] (Ac-YDELVFDASQVNEKINQSLEKIRKSDELLHNVEAAAKK(Succinyl(4-O-cholesteryl))-NH2)	6.2 µM	0.187 µM
CC[C@H](C)[C@H](NC(=O)[C@H](CCCCN)NC(=O)[C@H](CCCCN)NC(=O)[C@H](CC(C)C)NC(=O)[C@H](CO)NC(=O)[C@H](CCC(=O)O)NC(=O)[C@H](CCC(=O)O)NC(=O)[C@@H](NC(=O)[C@H](CCCCN)NC(=O)[C@H](CCCCN)NC(=O)[C@H](CC(N)=O)NC(=O)[C@@H](NC(=O)[C@H](CCC(=O)O)NC(=O)[C@H](CCC(=O)O)NC(=O)[C@@H](NC(=O)[C@H](CCCCN)NC(=O)[C@H](CCCCN)NC(=O)[C@H](CC(=O)O)NC(=O)[C@H](Cc1ccccc1)NC(=O)[C@H](CCC(=O)O)NC(=O)[C@H](CC(=O)O)NC(=O)[C@H](Cc1c[nH]c2ccccc12)NC(C)=O)[C@@H](C)CC)C(C)C)[C@@H](C)CC)C(=O)N[C@@H](CCC(=O)O)C(=O)N[C@@H](CCC(=O)O)C(=O)N[C@@H](CO)C(=O)N[C@@H](CC(=O)O)C(=O)N[C@@H](CCCCN)C(=O)N[C@@H](CCCCN)C(=O)N[C@@H](CC(C)C)C(=O)N[C@@H](CCC(=O)O)C(=O)N[C@@H](CCC(=O)O)C(=O)N[C@H](C(=O)N[C@@H](CC(N)=O)C(=O)N[C@@H](CCC(=O)O)C(=O)N[C@@H](C)C(=O)N[C@@H](C)C(=O)N[C@@H](C)C(=O)N[C@@H](CCCCN)C(=O)N[C@@H](CCCCNC(=O)CCC(=O)O[C@H]1CC[C@@]2(C)C(=CC[C@H]3[C@@H]4CC[C@H]([C@H](C)CCCC(C)C)[C@@]4(C)CC[C@@H]32)C1)C(N)=O)C(C)C [Compound 41] (Ac-WDEFDKKIEEVNKKIEESLKKIEESDKKLEEVNEAAAKK(Succinyl(4-O-cholesteryl))-NH2)	17 µM	4.73 µM
Ac-SLEQVNEKINQSLAFIRKSDEINQSDEEVNKSDELLEAAAKK-NH2 [Compound 50]	32.6 µM	–
